Literature values in US20220228277A1, “COMPACT GENERATOR FOR GENERATING STERILIZING MATERIALS” (priority 2021, published 2022).

Experiments:
[1] = in a year
[2] = environment dependent
[3] = 20° C. water; also printed as 29.9 ppm

| Compound | decay of sealed H2O2-H2O solution [1] [%] | natural life of O3 (turns into O2) [2] [min] | solubility of O3 in water [3] [µg/mL] |
| --- | --- | --- | --- |
| OO [H2O2, hydrogen peroxide] | 10 | – | – |
| O=[O+][O-] [O3, ozone] | – | 20 to 30 | 29.9 |
